Data: patent US8476434B2, “Protein kinase modulators and method of use” (Amgen Inc., priority 2004, dated 2013)
pIC50: −log10 of the molar value.

Molecular target: T1, LCK KD GST (225-509) (Homo sapiens, UniProt P06239)
T1 construct: LCK KD GST (225-509); GST
Assay: LCK Homogenous Time Resolved Fluorescent (HTRF) kinase assay
Format: biochemical
Experimental: The LCK HTRF assay begins with LCK in the presence of ATP phosphorylating the biotinylated peptide Gastrin. The reaction incubates for 90 min. To quench the assay detection reagents are added which both stop the reaction by diluting out the enzyme and chelating the metals due to the presence of EDTA. Once the detection reagents are added the assay incubates for 30 min to allow for equilibration of the detection reagents.
Buffer conditions are as follows: 50 mM HEPES pH 7.5, 50 mM NaCl, 20 mM MgCl, 5 mM MnCl, 2 mM DTT, 0.05% BSA.
The assay is quenched and stopped with 160 μL of detection reagent. Detection reagents are as follows: Buffer made of 50 mM Tris, pH 7.5, 100 mM NaCl, 3 mM EDTA, 0.05% BSA, 0.1% Tween20.
The assay plate is read in either a Discovery or a RubyStar.

T1 sequence (P06239 225-509): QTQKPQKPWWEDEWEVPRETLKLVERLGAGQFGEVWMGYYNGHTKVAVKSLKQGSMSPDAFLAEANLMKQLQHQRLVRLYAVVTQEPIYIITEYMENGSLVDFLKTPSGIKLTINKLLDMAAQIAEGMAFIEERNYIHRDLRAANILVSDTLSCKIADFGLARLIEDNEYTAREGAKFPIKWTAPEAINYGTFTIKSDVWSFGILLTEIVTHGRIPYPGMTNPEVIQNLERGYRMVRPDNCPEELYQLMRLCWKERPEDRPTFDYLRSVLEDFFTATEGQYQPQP

| SMILES | pIC50 |
| --- | --- |
| CNc1ncnc(-c2cccnc2Oc2cc(C(=O)Nc3cccc(OCc4ccccc4)c3)ccc2C)n1 [4-methyl-3-((3-(4-(methylamino)-1,3,5-triazin-2-yl)-2-pyridinyl)oxy)-N-(3-((phenylmethyl)oxy)phenyl)benzamide] | > 6.00 |
| CNc1ncnc(-c2cccnc2Oc2cc(C(=O)Nc3cccc(C(F)(F)F)c3)ccc2C)n1 [4-methyl-3-((3-(4-(methylamino)-1,3,5-triazin-2-yl)-2-pyridinyl)oxy)-N-(3-(trifluoromethyl)phenyl)benzamide] | > 6.00 |
| Cc1ccc(C(=O)Nc2ccc(C(F)(F)F)cc2)cc1Nc1ncccc1-c1ccncn1 [4-methyl-3-((3-(4-pyrimidinyl)-2-pyridinyl)amino)-N-(4-(trifluoromethyl)phenyl)benzamide] | > 6.00 |
| Cc1ccc(C(=O)Nc2cccc(C(F)(F)F)c2)cc1Oc1ncccc1-c1ccncn1 [4-methyl-3-((3-(4-pyrimidinyl)-2-pyridinyl)oxy)-N-(3-(trifluoromethyl)phenyl)benzamide] | > 6.00 |
| CNc1cc(-c2cccnc2Oc2cc(C(=O)Nc3cccc(C(F)(F)F)c3)ccc2C)ncn1 [4-methyl-3-((3-(6-(methylamino)-4-pyrimidinyl)-2-pyridinyl)oxy)-N-(3-(trifluoromethyl)phenyl)benzamide] | > 6.00 |
| COc1ccc(C(F)(F)F)cc1NC(=O)c1ccc(C)c(Oc2ncccc2-c2ccncn2)c1 [4-methyl-N-(2-(methyloxy)-5-(trifluoromethyl)phenyl)-3-((3-(4-pyrimidinyl)-2-pyridinyl)oxy)benzamide] | > 6.00 |
| Cc1ccc(C(=O)Nc2cccc(C(C)C)c2)cc1Oc1ncccc1-c1ncnc(NCCCN2CCOCC2)n1 [4-methyl-N-(3-(1-methylethyl)phenyl)-3-((3-(4-((3-(4-morpholinyl)propyl)amino)-1,3,5-triazin-2-yl)-2-pyridinyl)oxy)benzamide] | > 6.00 |
| CNc1nccc(-c2cccnc2Oc2cccc(NC(=O)c3cc(C(C)(C)C)ccc3OC)c2)n1 [5-(1,1-dimethylethyl)-N-(3-((3-(2-(methylamino)-4-pyrimidinyl)-2-pyridinyl)oxy)phenyl)-2-(methyloxy)benzamide] | > 6.00 |
| CNc1nccc(-c2cccnc2Oc2cc(NC(=O)c3cc(C(C)(C)C)ccc3OC)ccc2C)n1 [5-(1,1-dimethylethyl)-N-(4-methyl-3-((3-(2-(methylamino)-4-pyrimidinyl)-2-pyridinyl)oxy)phenyl)-2-(methyloxy)benzamide] | > 6.00 |
| CNc1nccc(-c2cccnc2Oc2ccc(NC(=O)Nc3cc(Cl)ccc3Cl)cc2C)n1 [N-(2,5-dichlorophenyl)-N′-(3-methyl-4-((3-(2-(methylamino)-4-pyrimidinyl)-2-pyridinyl)oxy)phenyl)urea] | > 6.00 |
| CNc1nccc(-c2cccnc2Oc2ccc(NC(=O)Nc3cc(C)ccc3C)cc2C)n1 [N-(2,5-dimethylphenyl)-N′-(3-methyl-4-((3-(2-(methylamino)-4-pyrimidinyl)-2-pyridinyl)oxy)phenyl)urea] | > 6.00 |
| CNc1cc(-c2cccnc2Oc2ccc(F)c(C(=O)Nc3cc(C(C)(C)C)ccc3N(C)CCCN(C)C)c2)ccn1 [N-(2-((3-(dimethylamino)propyl)(methyl)amino)-5-(1,1-dimethylethyl)phenyl)-2-fluoro-5-((2′-(methylamino)-3,4′-bipyridin-2-yl)oxy)benzamide] | > 6.00 |
| CNc1ncnc(-c2cccnc2Oc2ccc(F)c(C(=O)Nc3cc(C(C)C)ccc3N(C)CCCN(C)C)c2)n1 [N-(2-((3-(dimethylamino)propyl)(methyl)amino)-5-(1-methylethyl)phenyl)-2-fluoro-5-((3-(4-(methylamino)-1,3,5-triazin-2-yl)-2-pyridinyl)oxy)benzamide] | > 6.00 |
| CNc1ncnc(-c2cccnc2Oc2ccc(F)c(C(=O)Nc3cc(C(F)(F)C(F)(F)F)ccc3N(C)CCCN(C)C)c2)n1 [N-(2-((3-(dimethylamino)propyl)(methyl)amino)-5-(pentafluoroethyl)phenyl)-2-fluoro-5-((3-(4-(methylamino)-1,3,5-triazin-2-yl)-2-pyridinyl)oxy)benzamide] | > 6.00 |
| CNc1ncnc(-c2cccnc2Oc2ccc(F)c(C(=O)Nc3cc(C(F)(F)F)ccc3N(C)CCCN(C)C)c2)n1 [N-(2-((3-(dimethylamino)propyl)(methyl)amino)-5-(trifluoromethyl)phenyl)-2-fluoro-5-((3-(4-(methylamino)-1,3,5-triazin-2-yl)-2-pyridinyl)oxy)benzamide] | > 6.00 |
| CNc1cc(-c2cccnc2Oc2cc(C(=O)Nc3cc(C(F)(F)F)ccc3N(C)CCCN(C)C)ccc2C)ccn1 [N-(2-((3-(dimethylamino)propyl)(methyl)amino)-5-(trifluoromethyl)phenyl)-4-methyl-3-((2′-(methylamino)-3,4′-bipyridin-2-yl)oxy)benzamide] | > 6.00 |

| SMILES | pIC50 |
| --- | --- |
| CNc1nccc(-c2cccnc2Oc2cc(C(=O)Nc3cc(C(F)(F)F)ccc3N(C)CCCN(C)C)ccc2C)n1 [N-(2-((3-(dimethylamino)propyl)(methyl)amino)-5-(trifluoromethyl)phenyl)-4-methyl-3-((3-(2-(methylamino)-4-pyrimidinyl)-2-pyridinyl)oxy)benzamide] | > 6.00 |
| CNc1ncnc(-c2cccnc2Oc2cc(C(=O)Nc3cc(C(F)(F)F)ccc3N(C)CCCN(C)C)ccc2C)n1 [N-(2-((3-(dimethylamino)propyl)(methyl)amino)-5-(trifluoromethyl)phenyl)-4-methyl-3-((3-(4-(methylamino)-1,3,5-triazin-2-yl)-2-pyridinyl)oxy)benzamide] | > 6.00 |
| CNc1ncnc(-c2cccnc2Oc2ccc(NC(=O)Nc3cc(C(F)(F)F)ccc3N(C)CCCN(C)C)c3ccccc23)n1 [N-(2-((3-(dimethylamino)propyl)(methyl)amino)-5-(trifluoromethyl)phenyl)-N′-(4-((3-(4-(methylamino)-1,3,5-triazin-2-yl)-2-pyridinyl)oxy)-1-naphthalenyl)urea] | > 6.00 |
| C#Cc1ccc(N(C)CCCN(C)C)c(NC(=O)c2cc(Oc3ncccc3-c3ccnc(NC)n3)ccc2F)c1 [N-(2-((3-(dimethylamino)propyl)(methyl)amino)-5-ethynylphenyl)-2-fluoro-5-((3-(2-(methylamino)-4-pyrimidinyl)-2-pyridinyl)oxy)benzamide] | > 6.00 |
| CNc1nccc(-c2cccnc2Oc2cc(C(=O)Nc3cc(C(F)(F)F)ccc3N3CC[C@H](N(C)C)C3)ccc2C)n1 [N-(2-((3S)-3-(dimethylamino)-1-pyrrolidinyl)-5-(trifluoromethyl)phenyl)-4-methyl-3-((3-(2-(methylamino)-4-pyrimidinyl)-2-pyridinyl)oxy)benzamide] | > 6.00 |
| CNc1ncnc(-c2cccnc2Oc2ccc(NC(=O)Nc3cc(C(F)(F)F)ccc3N3CC[C@H](N(C)C)C3)c3ccccc23)n1 [N-(2-((3S)-3-(dimethylamino)-1-pyrrolidinyl)-5-(trifluoromethyl)phenyl)-N′-(4-((3-(4-(methylamino)-1,3,5-triazin-2-yl)-2-pyridinyl)oxy)-1-naphthalenyl)urea] | > 6.00 |
| CNc1ncnc(-c2cccnc2Oc2ccc(NC(=O)Nc3cc(C(F)(F)F)ccc3CN3CC[C@@H](N(C)C)C3)c3ccccc23)n1 [N-(2-(((3R)-3-(dimethylamino)-1-pyrrolidinyl)methyl)-5-(trifluoromethyl)phenyl)-N′-(4-((3-(4-(methylamino)-1,3,5-triazin-2-yl)-2-pyridinyl)oxy)-1-naphthalenyl)urea] | > 6.00 |
| CNc1cc(-c2cccnc2Oc2ccc(Cl)c(NC(=O)c3cccc(C(C)C)c3)c2)ccn1 [N-(2-chloro-5-((2′-(methylamino)-3,4′-bipyridin-2-yl)oxy)phenyl)-3-(1-methylethyl)benzamide] | > 6.00 |
| CNc1ncnc(-c2cccnc2Oc2cc(C(=O)Nc3cc(C(F)(F)F)ccc3Cl)ccc2C)n1 [N-(2-chloro-5-(trifluoromethyl)phenyl)-4-methyl-3-((3-(4-(methylamino)-1,3,5-triazin-2-yl)-2-pyridinyl)oxy)benzamide] | > 6.00 |
| Cc1ccc(C(=O)Nc2cc(C(F)(F)F)ccc2Cl)cc1Oc1ncccc1-c1ccncn1 [N-(2-chloro-5-(trifluoromethyl)phenyl)-4-methyl-3-((3-(4-pyrimidinyl)-2-pyridinyl)oxy)benzamide] | > 6.00 |
| CNc1nccc(-c2cccnc2Oc2ccc(NC(=O)Nc3cc(C(F)(F)F)ccc3Cl)cc2C)n1 [N-(2-chloro-5-(trifluoromethyl)phenyl)-N′-(3-methyl-4-((3-(2-(methylamino)-4-pyrimidinyl)-2-pyridinyl)oxy)phenyl)urea] | > 6.00 |
| CNc1nccc(-c2cccnc2Oc2ccc(NC(=O)Nc3cc(C(F)(F)F)ccc3F)c3ccccc23)n1 [N-(2-fluoro-5-(trifluoromethyl)phenyl)-N′-(4-((3-(2-(methylamino)-4-pyrimidinyl)-2-pyridinyl)oxy)-1-naphthalenyl)urea] | > 6.00 |
| CNc1nccc(-c2cccnc2Oc2cc(C(=O)Nc3cc(C(C)(C)C)nn3-c3ccccc3)ccc2C)n1 [N-(3-(1,1-dimethylethyl)-1-phenyl-1H-pyrazol-5-yl)-4-methyl-3-((3-(2-(methylamino)-4-pyrimidinyl)-2-pyridinyl)oxy)benzamide] | > 6.00 |
| Cc1ccc(C(=O)Nc2cc(C(C)(C)C)nn2-c2ccccc2)cc1Oc1ncccc1-c1ccncn1 [N-(3-(1,1-dimethylethyl)-1-phenyl-1H-pyrazol-5-yl)-4-methyl-3-((3-(4-pyrimidinyl)-2-pyridinyl)oxy)benzamide] | > 6.00 |
| CNc1ncnc(-c2cccnc2Oc2ccc(F)c(C(=O)Nc3cccc(C(C)(C)C)c3)c2)n1 [N-(3-(1,1-dimethylethyl)phenyl)-2-fluoro-5-((3-(4-(methylamino)-1,3,5-triazin-2-yl)-2-pyridinyl)oxy)benzamide] | > 6.00 |
